Measured values published in PubChem BioAssay AID2060493 (Molecular Pharmacology Branch, DTP, NCI, 2025).
Values belong to the compound of their own block, whether it stands above or below them.

Tested on: 616215-338-R-J1-PDC tumor spheroids, viability
Assay: Anticancer human tumor 616215-338-R-J1-PDC patient-derived colon adenocarcinoma cell line growth inhibition [GQUAD]
Conditions: spheroids with HUVEC and MSC; for IC50: curve of first compound; for viability, T/C: stronger effect = lower value
How it was run: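 Multi-cell-type spheroids of tumor cells with HUVEC and mesenchymal stem cells, treated with drug combinations. Concentrations descend in half-log steps from near clinical Cmax, or from 10 microM where Cmax is unknown; viability read-out.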

[1] = second compound 0.0316 µM, first compound 0.0316 µM
[2] = second compound 0.0316 µM, first compound 0.1 µM
[3] = second compound 0.0316 µM, first compound 0.316 µM
[4] = second compound 0.0316 µM, first compound 1 µM
[5] = second compound 0.0316 µM, first compound 3.16 µM
[6] = second compound 0.0316 µM, first compound 10 µM
[7] = second compound 0.1 µM, first compound 0.0316 µM
[8] = second compound 0.1 µM, first compound 0.1 µM
[9] = second compound 0.1 µM, first compound 0.316 µM
[10] = second compound 0.1 µM, first compound 1 µM
[11] = second compound 0.1 µM, first compound 3.16 µM
[12] = second compound 0.1 µM, first compound 10 µM
[13] = second compound 0.316 µM, first compound 0.0316 µM
[14] = second compound 0.316 µM, first compound 0.1 µM
[15] = second compound 0.316 µM, first compound 0.316 µM
[16] = second compound 0.316 µM, first compound 1 µM
[17] = second compound 0.316 µM, first compound 3.16 µM
[18] = second compound 0.316 µM, first compound 10 µM
[19] = second compound 1 µM, first compound 0.0316 µM
[20] = second compound 1 µM, first compound 0.1 µM
[21] = second compound 1 µM, first compound 0.316 µM
[22] = second compound 1 µM, first compound 1 µM
[23] = second compound 1 µM, first compound 3.16 µM
[24] = second compound 1 µM, first compound 10 µM
[25] = second compound 3.16 µM, first compound 0.0316 µM
[26] = second compound 3.16 µM, first compound 0.1 µM
[27] = second compound 3.16 µM, first compound 0.316 µM
[28] = second compound 3.16 µM, first compound 1 µM
[29] = second compound 3.16 µM, first compound 3.16 µM
[30] = second compound 3.16 µM, first compound 10 µM
[31] = second compound 10 µM, first compound 0.0316 µM
[32] = second compound 10 µM, first compound 0.1 µM
[33] = second compound 10 µM, first compound 0.316 µM
[34] = second compound 10 µM, first compound 1 µM
[35] = second compound 10 µM, first compound 3.16 µM
[36] = second compound 10 µM, first compound 10 µM
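Also: spheroids exposed to agents for 7 days before readout.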
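For viability, T/C in this document: percent viability relative to DMSO vehicle control wells taken as 100%.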

IC50 (second compound 0.0316 µM): > 10000 nM
IC50 (second compound 0.1 µM): > 10000 nM
IC50 (second compound 0.316 µM): 938 nM
IC50 (second compound 1 µM): < 31.6 nM
IC50 (second compound 3.16 µM): < 31.6 nM
IC50 (second compound 10 µM): < 31.6 nM
SMILES: C=CC(=O)N1CCN(c2nc(=O)n(-c3c(C)ccnc3C(C)C)c3nc(-c4c(O)cccc4F)c(F)cc23)C(C)C1 (stereo not given) + Cc1cnc(CNC(=O)c2c(=O)c3ccc(N4CCCN(C)CC4)nc3n3c2sc2ccccc23)cn1
viability, T/C [1]: 106%
viability, T/C [2]: 109%
viability, T/C [3]: 99.1%
viability, T/C [4]: 95.9%
viability, T/C [5]: 89.2%
viability, T/C [6]: 63.7%
viability, T/C [7]: 79.8%
viability, T/C [8]: 73.9%
viability, T/C [9]: 43.4%
viability, T/C [10]: 64%
viability, T/C [11]: 94.5%
viability, T/C [12]: 48.5%
viability, T/C [13]: 43.1%
viability, T/C [14]: 69.1%
viability, T/C [15]: 62.8%
viability, T/C [16]: 49.5%
viability, T/C [17]: 43.8%
viability, T/C [18]: 47.6%
viability, T/C [19]: 30.9%
viability, T/C [20]: 41%
viability, T/C [21]: 38.5%
viability, T/C [22]: 34.4%
viability, T/C [23]: 38%
viability, T/C [24]: 41.8%
viability, T/C [25]: 30.6%
viability, T/C [26]: 36.6%
viability, T/C [27]: 32.9%
viability, T/C [28]: 26.6%
viability, T/C [29]: 37%
viability, T/C [30]: 42.5%
viability, T/C [31]: 30.9%
viability, T/C [32]: 28.6%
viability, T/C [33]: 26%
viability, T/C [34]: 35.2%
viability, T/C [35]: 34.4%
viability, T/C [36]: 24.2%

IC50 (second compound 0.0316 µM): < 31.6 nM
IC50 (second compound 0.1 µM): 109 nM
IC50 (second compound 0.316 µM): < 31.6 nM
IC50 (second compound 1 µM): < 31.6 nM
IC50 (second compound 3.16 µM): < 31.6 nM
IC50 (second compound 10 µM): < 31.6 nM
SMILES: Nc1ccn(C2OC(CO)C(O)C2(F)F)c(=O)n1 (stereo not given) + Cc1cnc(CNC(=O)c2c(=O)c3ccc(N4CCCN(C)CC4)nc3n3c2sc2ccccc23)cn1
viability, T/C [1]: 35.4%
viability, T/C [2]: 35.6%
viability, T/C [3]: 16.7%
viability, T/C [4]: 14.6%
viability, T/C [5]: 17.8%
viability, T/C [6]: 14.1%
viability, T/C [7]: 48.2%
viability, T/C [8]: 56.5%
viability, T/C [9]: 20.4%
viability, T/C [10]: 16.5%
viability, T/C [11]: 19.9%
viability, T/C [12]: 14.9%
viability, T/C [13]: 45.8%
viability, T/C [14]: 26.8%
viability, T/C [15]: 17.7%
viability, T/C [16]: 20.3%
viability, T/C [17]: 15.1%
viability, T/C [18]: 17%
viability, T/C [19]: 32.5%
viability, T/C [20]: 30.7%
viability, T/C [21]: 24.1%
viability, T/C [22]: 28.2%
viability, T/C [23]: 18.3%
viability, T/C [24]: 18.4%
viability, T/C [25]: 28.4%
viability, T/C [26]: 41.8%
viability, T/C [27]: 24%
viability, T/C [28]: 20.4%
viability, T/C [29]: 16.4%
viability, T/C [30]: 23.5%
viability, T/C [31]: 28.4%
viability, T/C [32]: 28.8%
viability, T/C [33]: 22.4%
viability, T/C [34]: 21%
viability, T/C [35]: 20%
viability, T/C [36]: 18.5%

IC50 (second compound 0.0316 µM): 381 nM
IC50 (second compound 0.1 µM): 410 nM
IC50 (second compound 0.316 µM): < 31.6 nM
IC50 (second compound 1 µM): < 31.6 nM
IC50 (second compound 3.16 µM): < 31.6 nM
IC50 (second compound 10 µM): < 31.6 nM
SMILES: COc1cccc2c1C(=O)c1c(O)c3c(c(O)c1C2=O)CC(O)(C(=O)CO)CC3OC1CC(N)C(O)C(C)O1 (stereo not given) + Cc1cnc(CNC(=O)c2c(=O)c3ccc(N4CCCN(C)CC4)nc3n3c2sc2ccccc23)cn1
viability, T/C [1]: 102%
viability, T/C [2]: 54.7%
viability, T/C [3]: 50.2%
viability, T/C [4]: 40.5%
viability, T/C [5]: 20.2%
viability, T/C [6]: 1.32%
viability, T/C [7]: 56%
viability, T/C [8]: 67.4%
viability, T/C [9]: 49.7%
viability, T/C [10]: 39.2%
viability, T/C [11]: 19.4%
viability, T/C [12]: 1.25%
viability, T/C [13]: 38.2%
viability, T/C [14]: 39%
viability, T/C [15]: 32%
viability, T/C [16]: 27.7%
viability, T/C [17]: 19.9%
viability, T/C [18]: 0.1%
viability, T/C [19]: 28.1%
viability, T/C [20]: 37.7%
viability, T/C [21]: 34.5%
viability, T/C [22]: 26%
viability, T/C [23]: 12.6%
viability, T/C [24]: 0.1%
viability, T/C [25]: 29.8%
viability, T/C [26]: 28.1%
viability, T/C [27]: 35.1%
viability, T/C [28]: 16.4%
viability, T/C [29]: 15.3%
viability, T/C [30]: 0.16%
viability, T/C [31]: 28%
viability, T/C [32]: 20.8%
viability, T/C [33]: 28.3%
viability, T/C [34]: 23.1%
viability, T/C [35]: 3.24%
viability, T/C [36]: 0.25%

IC50 (second compound 0.0316 µM): > 10000 nM
IC50 (second compound 0.1 µM): < 31.6 nM
IC50 (second compound 0.316 µM): < 31.6 nM
IC50 (second compound 1 µM): < 31.6 nM
IC50 (second compound 3.16 µM): < 31.6 nM
IC50 (second compound 10 µM): < 31.6 nM
SMILES: Cc1cccc(N(C)C(=O)C2C(O)CCN2c2nc(C)cc(C(F)(F)F)c2C#N)c1 (stereo not given) + Cc1cnc(CNC(=O)c2c(=O)c3ccc(N4CCCN(C)CC4)nc3n3c2sc2ccccc23)cn1
viability, T/C [1]: 106%
viability, T/C [2]: 101%
viability, T/C [3]: 109%
viability, T/C [4]: 103%
viability, T/C [5]: 95.8%
viability, T/C [6]: 98.6%
viability, T/C [7]: 37.9%
viability, T/C [8]: 68.2%
viability, T/C [9]: 56.2%
viability, T/C [10]: 80.6%
viability, T/C [11]: 81.8%
viability, T/C [12]: 49%
viability, T/C [13]: 50.5%
viability, T/C [14]: 46.1%
viability, T/C [15]: 50.2%
viability, T/C [16]: 48.9%
viability, T/C [17]: 57.9%
viability, T/C [18]: 42%
viability, T/C [19]: 32.6%
viability, T/C [20]: 35.1%
viability, T/C [21]: 39.1%
viability, T/C [22]: 31.9%
viability, T/C [23]: 38.3%
viability, T/C [24]: 29.3%
viability, T/C [25]: 31.7%
viability, T/C [26]: 27.9%
viability, T/C [27]: 33.5%
viability, T/C [28]: 30.5%
viability, T/C [29]: 29.1%
viability, T/C [30]: 34.8%
viability, T/C [31]: 30.5%
viability, T/C [32]: 37%
viability, T/C [33]: 31.1%
viability, T/C [34]: 26.7%
viability, T/C [35]: 32.2%
viability, T/C [36]: 29.9%

SMILES: CCc1c2c(nc3ccc(O)cc13)-c1cc3c(c(=O)n1C2)COC(=O)[C@]3(O)CC + Cc1[nH]c2ccc(F)cc2c1-c1nc2c3cccnc3c3ncccc3c2[nH]1
IC50 (second compound 0.0316 µM): 16.7 nM
IC50 (second compound 0.1 µM): 9.2 nM
IC50 (second compound 0.316 µM): 8.78 nM
IC50 (second compound 1 µM): 12 nM
IC50 (second compound 3.16 µM): 13.2 nM
IC50 (second compound 10 µM): 7.87 nM
viability, T/C (second compound 0.0316 µM, first compound 0.000999 µM): 97.3%
viability, T/C (second compound 0.0316 µM, first compound 0.00316 µM): 81.9%
viability, T/C (second compound 0.0316 µM, first compound 0.00999 µM): 53.6%
viability, T/C [1]: 43%
viability, T/C (second compound 0.0316 µM, first compound 0.0999 µM): 23.4%
viability, T/C [3]: 12.8%
viability, T/C (second compound 0.1 µM, first compound 0.000999 µM): 94.5%
viability, T/C (second compound 0.1 µM, first compound 0.00316 µM): 100%
viability, T/C (second compound 0.1 µM, first compound 0.00999 µM): 46.3%
viability, T/C [7]: 33.1%
viability, T/C (second compound 0.1 µM, first compound 0.0999 µM): 24.9%
viability, T/C [9]: 19.9%
viability, T/C (second compound 0.316 µM, first compound 0.000999 µM): 96.5%
viability, T/C (second compound 0.316 µM, first compound 0.00316 µM): 90.3%
viability, T/C (second compound 0.316 µM, first compound 0.00999 µM): 42.5%
viability, T/C [13]: 32.3%
viability, T/C (second compound 0.316 µM, first compound 0.0999 µM): 21.8%
viability, T/C [15]: 13.8%
viability, T/C (second compound 1 µM, first compound 0.000999 µM): 108%
viability, T/C (second compound 1 µM, first compound 0.00316 µM): 76.8%
viability, T/C (second compound 1 µM, first compound 0.00999 µM): 58.9%
viability, T/C [19]: 28.5%
viability, T/C (second compound 1 µM, first compound 0.0999 µM): 21.7%
viability, T/C [21]: 16.4%
viability, T/C (second compound 3.16 µM, first compound 0.000999 µM): 98.5%
viability, T/C (second compound 3.16 µM, first compound 0.00316 µM): 86.5%
viability, T/C (second compound 3.16 µM, first compound 0.00999 µM): 51.2%
viability, T/C [25]: 35.2%
viability, T/C (second compound 3.16 µM, first compound 0.0999 µM): 20.7%
viability, T/C [27]: 14.5%
viability, T/C (second compound 10 µM, first compound 0.000999 µM): 90.3%
viability, T/C (second compound 10 µM, first compound 0.00316 µM): 74.9%
viability, T/C (second compound 10 µM, first compound 0.00999 µM): 42.5%
viability, T/C [31]: 24.5%
viability, T/C (second compound 10 µM, first compound 0.0999 µM): 20.5%
viability, T/C [33]: 13.4%
